What was measured:
[1] = biological target: T1, B2 bradykinin receptor (Homo sapiens, UniProt P30411); type: cell membranes, Membrane; details: chem-1; also: in other assays of this panel Not Active means under 50% inhibition at 10 µM
T1 sequence (P30411 whole entry): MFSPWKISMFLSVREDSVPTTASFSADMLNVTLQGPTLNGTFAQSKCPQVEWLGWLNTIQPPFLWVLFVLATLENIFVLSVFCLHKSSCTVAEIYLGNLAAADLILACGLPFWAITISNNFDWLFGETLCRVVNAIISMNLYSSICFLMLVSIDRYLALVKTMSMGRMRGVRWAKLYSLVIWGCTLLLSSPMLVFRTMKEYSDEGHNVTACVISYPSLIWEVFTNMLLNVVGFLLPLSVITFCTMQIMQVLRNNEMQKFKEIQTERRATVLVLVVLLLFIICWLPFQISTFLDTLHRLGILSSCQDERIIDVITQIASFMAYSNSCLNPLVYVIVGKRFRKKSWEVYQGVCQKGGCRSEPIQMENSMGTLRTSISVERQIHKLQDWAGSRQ

[2] = biological target: T2, Vasoactive intestinal polypeptide receptor 1 (Homo sapiens, UniProt P32241); type: cell membranes, Membrane; details: ht-29; also: in other assays of this panel Not Active means under 50% inhibition at 10 µM
T2 sequence (P32241 whole entry): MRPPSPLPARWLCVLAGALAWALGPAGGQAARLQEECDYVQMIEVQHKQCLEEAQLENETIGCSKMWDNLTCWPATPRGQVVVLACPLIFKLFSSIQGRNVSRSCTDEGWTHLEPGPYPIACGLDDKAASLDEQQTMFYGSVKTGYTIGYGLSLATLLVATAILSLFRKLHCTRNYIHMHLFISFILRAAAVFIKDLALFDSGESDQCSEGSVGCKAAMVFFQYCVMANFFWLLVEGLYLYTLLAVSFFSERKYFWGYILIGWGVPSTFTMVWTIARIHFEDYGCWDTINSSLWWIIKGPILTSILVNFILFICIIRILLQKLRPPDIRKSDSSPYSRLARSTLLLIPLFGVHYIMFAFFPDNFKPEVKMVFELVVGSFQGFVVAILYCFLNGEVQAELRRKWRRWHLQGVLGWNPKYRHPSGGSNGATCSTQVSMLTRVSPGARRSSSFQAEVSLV

[3] = DRUGMATRIX: GABAA, Muscimol, Central radioligand binding (ligand: [3H] Muscimol); type: cell membranes, Rattus norvegicus, Wistar, Brain, Membrane; details: Not Active = under 50% inhibition at 10 µM
[4] = biological target: Nitric oxide synthase 1 (Rattus norvegicus, UniProt P29476); type: tissue-based, Cerebellum; also: in other assays of this panel Not Active means under 50% inhibition at 10 µM
Nitric oxide synthase 1, sequence (P29476 whole entry): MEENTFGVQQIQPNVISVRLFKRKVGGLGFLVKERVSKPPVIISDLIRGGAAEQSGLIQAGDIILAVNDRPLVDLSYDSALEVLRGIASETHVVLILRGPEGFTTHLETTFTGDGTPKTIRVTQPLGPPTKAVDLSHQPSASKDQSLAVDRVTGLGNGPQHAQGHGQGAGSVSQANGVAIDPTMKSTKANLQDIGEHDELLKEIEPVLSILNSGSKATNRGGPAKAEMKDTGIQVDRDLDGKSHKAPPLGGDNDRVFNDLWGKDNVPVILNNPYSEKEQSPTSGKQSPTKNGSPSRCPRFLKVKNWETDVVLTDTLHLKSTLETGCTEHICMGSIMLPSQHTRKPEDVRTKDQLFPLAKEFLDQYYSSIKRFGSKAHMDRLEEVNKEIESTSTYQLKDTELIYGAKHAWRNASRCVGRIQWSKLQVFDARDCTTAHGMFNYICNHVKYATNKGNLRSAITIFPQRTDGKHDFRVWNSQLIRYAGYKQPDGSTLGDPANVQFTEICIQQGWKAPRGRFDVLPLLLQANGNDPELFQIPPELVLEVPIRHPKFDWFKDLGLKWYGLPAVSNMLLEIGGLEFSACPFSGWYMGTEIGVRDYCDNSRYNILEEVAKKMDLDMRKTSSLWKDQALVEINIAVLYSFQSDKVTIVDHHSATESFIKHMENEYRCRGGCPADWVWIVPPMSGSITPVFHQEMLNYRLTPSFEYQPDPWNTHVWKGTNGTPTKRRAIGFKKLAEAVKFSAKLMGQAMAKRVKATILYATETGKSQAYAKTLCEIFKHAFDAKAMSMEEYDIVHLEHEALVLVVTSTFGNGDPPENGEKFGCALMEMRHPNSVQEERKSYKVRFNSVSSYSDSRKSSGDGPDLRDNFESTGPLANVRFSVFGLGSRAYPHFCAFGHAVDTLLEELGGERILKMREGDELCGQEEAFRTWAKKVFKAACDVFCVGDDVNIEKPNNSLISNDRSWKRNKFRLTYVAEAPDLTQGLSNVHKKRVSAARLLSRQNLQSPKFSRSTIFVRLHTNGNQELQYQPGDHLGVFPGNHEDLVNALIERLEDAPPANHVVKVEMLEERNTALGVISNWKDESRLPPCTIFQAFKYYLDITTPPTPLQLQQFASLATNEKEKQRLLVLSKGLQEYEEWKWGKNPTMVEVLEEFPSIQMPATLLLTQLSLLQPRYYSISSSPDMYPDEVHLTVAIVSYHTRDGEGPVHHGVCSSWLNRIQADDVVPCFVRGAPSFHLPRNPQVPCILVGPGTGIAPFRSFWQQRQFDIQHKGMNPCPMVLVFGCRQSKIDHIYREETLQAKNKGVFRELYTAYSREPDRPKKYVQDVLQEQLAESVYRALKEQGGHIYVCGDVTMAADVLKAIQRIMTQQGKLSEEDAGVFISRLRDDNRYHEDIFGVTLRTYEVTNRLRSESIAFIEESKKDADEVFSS

[5] = DRUGMATRIX: Phosphodiesterase PDE3 enzyme inhibition (substrate: [3H]cAMP + cAMP); type: tissue-based, Homo sapiens; details: platelet; Not Active = under 50% inhibition at 10 µM
[6] = biological target: Tyrosine-protein kinase Fyn (Homo sapiens, UniProt P06241); experiment: biochemical; type: cell-based, Insect cells;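 also: enzymatic inhibition of Fyn kinase activity measured with Poly(Glu:Tyr) as the phosphorylation substrate; in other assays of this panel Not Active means under 50% inhibition at 10 µM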
Tyrosine-protein kinase Fyn, sequence (P06241 whole entry): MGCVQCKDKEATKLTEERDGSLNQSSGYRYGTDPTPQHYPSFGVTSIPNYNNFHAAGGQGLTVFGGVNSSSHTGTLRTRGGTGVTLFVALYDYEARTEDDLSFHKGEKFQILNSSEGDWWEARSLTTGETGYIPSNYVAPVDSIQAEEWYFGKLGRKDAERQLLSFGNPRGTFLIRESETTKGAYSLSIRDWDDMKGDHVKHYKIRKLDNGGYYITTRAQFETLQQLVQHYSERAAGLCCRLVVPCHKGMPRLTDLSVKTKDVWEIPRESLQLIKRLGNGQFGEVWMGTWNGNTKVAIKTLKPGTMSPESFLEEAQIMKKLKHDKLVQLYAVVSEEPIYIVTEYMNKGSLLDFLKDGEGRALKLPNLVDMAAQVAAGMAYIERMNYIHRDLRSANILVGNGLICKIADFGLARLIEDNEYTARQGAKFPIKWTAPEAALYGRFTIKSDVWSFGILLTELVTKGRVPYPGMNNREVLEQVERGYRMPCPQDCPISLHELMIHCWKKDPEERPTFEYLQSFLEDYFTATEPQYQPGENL

[7] = biological target: Tyrosine-protein kinase Lck (Homo sapiens, UniProt P06239); experiment: DRUGMATRIX: Protein Tyrosine Kinase, LCK enzyme inhibition (substrate: Poly(Glu:Tyr)); type: cell-based, Insect cells; details: insect cells; Not Active = under 50% inhibition at 10 µM
Tyrosine-protein kinase Lck, sequence (P06239 whole entry): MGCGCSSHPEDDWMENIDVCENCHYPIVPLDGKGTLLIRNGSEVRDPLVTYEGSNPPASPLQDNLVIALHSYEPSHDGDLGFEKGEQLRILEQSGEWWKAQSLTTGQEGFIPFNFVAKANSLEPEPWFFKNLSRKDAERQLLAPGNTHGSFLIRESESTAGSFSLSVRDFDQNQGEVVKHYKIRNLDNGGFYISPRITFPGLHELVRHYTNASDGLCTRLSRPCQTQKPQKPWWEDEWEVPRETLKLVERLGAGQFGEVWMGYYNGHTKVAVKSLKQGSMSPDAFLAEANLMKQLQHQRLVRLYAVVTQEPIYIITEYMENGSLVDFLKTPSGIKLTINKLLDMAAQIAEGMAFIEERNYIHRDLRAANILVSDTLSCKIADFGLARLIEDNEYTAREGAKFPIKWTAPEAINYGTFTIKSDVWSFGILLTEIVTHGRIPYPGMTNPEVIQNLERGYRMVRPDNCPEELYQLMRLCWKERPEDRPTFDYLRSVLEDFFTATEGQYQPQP

| SMILES | IC50 [1] | IC50 [2] | IC50 [3] | Ki [3] | IC50 [4] | IC50 [5] | Ki [5] | IC50 ([6]; insect cells) | IC50 [7] | IC50 ([6]; read-out: IC50) [µM] |
| --- | --- | --- | --- | --- | --- | --- | --- | --- | --- | --- |
| COc1cc2c3cc1Oc1cc(ccc1O)C[C@@H]1c4c(cc(OC)c(O)c4Oc4ccc(cc4)C[C@@H]3N(C)CC2)CC[N+]1(C)C.[Cl-] | Not Active | Not Active | Not Active | Not Active | Not Active | Not Active | Not Active | Not Active | Not Active | – |
| CC(C)C(Br)C(=O)NC(N)=O (centres undefined) [BROMISOVALUM] | Not Active | Not Active | Not Active | Not Active | Not Active | Not Active | Not Active | Not Active | Not Active | – |
| CCCC1O[C@@H]2C[C@H]3[C@@H]4CCC5=CC(=O)C=C[C@]5(C)[C@H]4[C@@H](O)C[C@]3(C)[C@]2(C(=O)CO)O1 (some centres undefined) [BUDESONIDE] | Not Active | Not Active | Not Active | Not Active | Not Active | Not Active | Not Active | Not Active | Not Active | – |
| O=C(O)CCCc1ccc(N(CCCl)CCCl)cc1 [CHLORAMBUCIL] | Not Active | Not Active | Not Active | Not Active | Not Active | Not Active | Not Active | Not Active | Not Active | – |
| CC(C)(C)NCC(O)c1cc(Cl)c(N)c(Cl)c1 (centres undefined) [CLENBUTEROL] | Not Active | Not Active | Not Active | Not Active | Not Active | Not Active | Not Active | Not Active | Not Active | – |
| CC1CC(OC(=O)C(O)c2ccccc2)CC(C)(C)C1 (centres undefined) [CYCLANDELATE] | Not Active | Not Active | Not Active | Not Active | Not Active | Not Active | Not Active | Not Active | Not Active | – |
| CNCCCN1c2ccccc2CCc2ccccc21 [DESIPRAMINE] | Not Active | Not Active | Not Active | Not Active | Not Active | Not Active | Not Active | Not Active | Not Active | – |
| O=c1oc2ccccc2c(O)c1Cc1c(O)c2ccccc2oc1=O [DICUMAROL] | Not Active | Not Active | Not Active | Not Active | Not Active | Not Active | Not Active | Not Active | Not Active | – |
| CC(=O)O[C@@]12CO[C@@H]1C[C@H](O)[C@@]1(C)C(=O)[C@H](O)C3=C(C)[C@@H](OC(=O)[C@H](O)[C@@H](NC(=O)OC(C)(C)C)c4ccccc4)C[C@@](O)([C@@H](OC(=O)c4ccccc4)[C@H]21)C3(C)C.O.O.O [DOCETAXEL] | Not Active | Not Active | Not Active | Not Active | Not Active | Not Active | Not Active | Not Active | Not Active | – |
| COc1cc2nc(N3CCN(C(=O)C4COc5ccccc5O4)CC3)nc(N)c2cc1OC (centres undefined) [DOXAZOSIN] | Not Active | Not Active | Not Active | Not Active | Not Active | Not Active | Not Active | Not Active | Not Active | – |
| C[C@H]1c2cccc(O)c2C(=O)C2=C(O)[C@]3(O)C(=O)C(C(N)=O)=C(O)[C@@H](N(C)C)[C@@H]3[C@@H](O)[C@@H]21.O [DOXYCYCLINE] | Not Active | Not Active | Not Active | Not Active | Not Active | Not Active | Not Active | Not Active | Not Active | – |
| C[C@]12CC[C@@H]3c4ccc(O)cc4CC[C@H]3[C@@H]1CCC2=O [ESTRONE] | Not Active | Not Active | Not Active | Not Active | Not Active | Not Active | Not Active | Not Active | Not Active | – |
| CC(C)C(=O)Nc1ccc([N+](=O)[O-])c(C(F)(F)F)c1 [FLUTAMIDE] | Not Active | Not Active | Not Active | Not Active | Not Active | Not Active | Not Active | Not Active | Not Active | – |
| CC1(C)O[C@@H]2C[C@H]3[C@@H]4CCC5=CC(=O)CC[C@]5(C)[C@@]4(F)[C@@H](O)C[C@]3(C)[C@]2(C(=O)CCl)O1 [HALCINONIDE] | Not Active | Not Active | Not Active | Not Active | Not Active | Not Active | Not Active | Not Active | Not Active | – |
| CC1Cc2ccccc2N1NC(=O)c1ccc(Cl)c(S(N)(=O)=O)c1 (centres undefined) [INDAPAMIDE] | Not Active | Not Active | Not Active | Not Active | Not Active | Not Active | Not Active | Not Active | Not Active | – |
| CCC(C)n1ncn(-c2ccc(N3CCN(c4ccc(OCC5COC(Cn6cncn6)(c6ccc(Cl)cc6Cl)O5)cc4)CC3)cc2)c1=O (centres undefined) [ITRACONAZOLE] | Not Active | Not Active | Not Active | Not Active | Not Active | Not Active | Not Active | – | Not Active | 3.89 |
| CCCCN1CCCC[C@H]1C(=O)Nc1c(C)cccc1C [LEVOBUPIVACAINE] | Not Active | Not Active | Not Active | Not Active | Not Active | Not Active | Not Active | Not Active | Not Active | – |
| Sc1ncnc2nc[nH]c12 [MERCAPTOPURINE ANHYDROUS] | Not Active | Not Active | Not Active | Not Active | Not Active | Not Active | Not Active | Not Active | Not Active | – |
| C[C@](N)(Cc1ccc(O)c(O)c1)C(=O)O [METHYLDOPA] | Not Active | Not Active | Not Active | Not Active | Not Active | Not Active | Not Active | – | Not Active | 5.18 |
| C[C@]12CCC(=O)C=C1CC[C@@H]1[C@@H]2CC[C@@]2(C)[C@H]1CC[C@]2(C)O [METHYLTESTOSTERONE] | Not Active | Not Active | Not Active | Not Active | Not Active | Not Active | Not Active | Not Active | Not Active | – |
| CN(C)CCCN1c2ccccc2Sc2ccccc21 [PROMAZINE] | Not Active | Not Active | Not Active | Not Active | Not Active | Not Active | Not Active | Not Active | Not Active | – |
